Test results published in article PMC11912471 (Journal of Medicinal Chemistry, 2025).
Values joined by “and” are separate entries in the source; they are usually repeats but may differ in a detail not shown here. Identical values can stand only once. Counter-ions that a name gives are not always drawn.

What was measured:
[1] = target: T1, purified human ODC enzyme (Homo sapiens, UniProt P11926); assay: In vitro ODC enzyme activity assay; type: biochemical; conditions: for inhibition at 50 µM: read-out: ODC biochemical inhibition % (50 μM); for IC50: read-out: ODC biochemical inhibition IC50; for lower activity relative to racemic 7: ratio of ODC IC50s
T1 construct: His6 (C); made in house; host or cells: E. coli BL21(DE3)
T1 sequence (P11926 1-461): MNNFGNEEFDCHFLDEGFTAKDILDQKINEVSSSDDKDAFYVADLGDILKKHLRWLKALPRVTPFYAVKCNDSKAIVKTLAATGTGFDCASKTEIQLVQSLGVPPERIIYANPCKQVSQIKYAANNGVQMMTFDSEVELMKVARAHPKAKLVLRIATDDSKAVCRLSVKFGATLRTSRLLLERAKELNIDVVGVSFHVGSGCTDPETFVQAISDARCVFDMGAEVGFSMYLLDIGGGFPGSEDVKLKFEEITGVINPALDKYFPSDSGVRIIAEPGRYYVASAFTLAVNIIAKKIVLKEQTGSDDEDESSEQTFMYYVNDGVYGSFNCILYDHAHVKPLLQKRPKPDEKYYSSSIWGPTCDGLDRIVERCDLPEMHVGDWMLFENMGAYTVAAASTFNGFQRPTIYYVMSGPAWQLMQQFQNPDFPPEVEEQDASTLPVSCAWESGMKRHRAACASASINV
Protocol: (§1) Our strategy to identify novel ODC inhibitors was to first screen new analogs for ODC inhibition at 50 μM using our in vitro enzyme activity assay and purified human ODC (Table 1). Those showing significant inhibition were then titrated to provide an ODC IC50 followed by cell-based screening against both cancer (Kelly neuroblastoma) and noncancerous (neonatal fibroblasts) cell lines. For the cancer cell line, higher cytotoxicity was desired and for the noncancerous cell line counter screen, lower cytotoxicity was desired.
In vitro ODC activity was measured using 100 ng of purified human ODC enzyme, as we previously described.[53],[99] ODC was incubated with increasing concentrations of inhibitors for 30 min at room temperature in a buffer containing 25 mM Tris and 0.1 mM EDTA. […] In the cell-based ODC activity assay, Kelly neuroblastoma cells that were treated with 500 μM inhibitors were harvested in a buffer containing 25 mM Tris HCl, 0.1 mM EDTA, and 2.5 mM DTT. […] For both the in vitro and cell-based assay, the microcentrifuge tubes were then placed into scintillation vials containing a piece of filter paper saturated with 200 μL of 0.1 M NaOH to capture the release of radiolabeled carbon dioxide. The samples were incubated in a 37 °C incubator while shaking for 30 min (in vitro) or 2 h (cell-based). The enzymatic reaction was stopped by adding 250 μL of 5 M sulfuric acid to each sample and incubating at 37 °C while shaking for 30 min. The microcentrifuge tubes were removed from the scintillation vials, and 5 mL of scintillation fluid was added. Disintegrations per minute (DPM) of each sample was measured using a TriCarb liquid scintillation counter (PerkinElmer). The specific ODC activity is expressed as nmol CO2/min/mg protein (in vitro) or pmol CO2/min/mg protein (cell-based). The individual ODC inhibitor IC50 values were determined using Graphpad Prism 8.

[2] = test system: Kelly neuroblastoma cells; assay: Sulforhodamine B (SRB) cytotoxicity assay, Kelly neuroblastoma cells; type: cell-based; conditions: for activity against Kelly neuroblastoma cells (in words): 72 h; for activity against Kelly neuroblastoma cells (in words) / Cell cytotoxicity (72 hr @ 500 μM) Kelly Neuroblastoma: 500 μM; for Cell cytotoxicity (72 hr @ 500 μM) Kelly Neuroblastoma: percent cytotoxicity; for cytotoxicity at 500 µM: Kelly, 72 hrs @500 µM, supplement csv, read-out: Kelly Neuroblasoma Cells (72 hrs @500 µM) %cytotoxicity
Protocol: as §1
(§2) Normal primary human neonatal fibroblast cells (ATCC) were maintained in DMEM medium (Gibco) supplemented with 10% heat-inactivated fetal bovine serum (Hyclone), penicillin (100 IU/mL), and streptomycin (100 μg/mL), nonessential amino acids (0.1 mM) and sodium pyruvate (1 mM). Kelly neuroblastoma cells (Sigma-Aldrich) were maintained in RPMI medium (Corning) supplemented with 10% heat-inactivated fetal bovine serum (Hyclone), penicillin (100 IU/mL), and streptomycin (100 μg/mL). Cell lines were routinely monitored for mycoplasma contamination using the MycoAlert PLUS Mycoplasma Detection Kit (Lonza).
(§3) The colorimetric sulforhodamine B (SRB) assay was used to measure cytotoxicity following treatment with ODC inhibitors. Briefly, Kelly neuroblastoma cells and normal primary human neonatal fibroblast cells were plated in transparent flat 96-well plates and allowed to attach overnight. Cells were treated with control or 500 μM ODC inhibitor for 72 h. Cells were then fixed with 10% TCA at 4 °C for 1 h, washed with deionized water, and dried at room temperature. Cells were stained with 100 μL of 0.4% SRB in 1% acetic acid for 20 min at room temperature, rinsed five times with 1% acetic acid and allowed to dry at room temperature. One hundred μL of 10 mM Tris–HCl pH 7.0 was added to each well, shaken for 10 min at room temperature and absorbance was read at 540 nm. Absorbance values were normalized relative to control readings and converted to percentage by multiplying by one hundred. The percent cytotoxicity was then determined by subtracting the relative percentage of the ODC inhibitor treated readings from the control which is 100%.

[3] = Sulforhodamine B (SRB) cytotoxicity assay, neonatal fibroblasts; type: cell-based, human; conditions: human, normal primary neonatal fibroblast cells; 72 hrs @500 µM; supplement csv
Protocol: as §1, §2, §3

[4] = test system: normal primary human neonatal fibroblast cells; assay: as above; type: cell-based; conditions: 500 μM; for cytotoxic activity against neonatal fibroblasts (in words): 72 h; for Cell cytotoxicity (72 hr @ 500 μM) Neonatal Fibroblasts: percent cytotoxicity
Protocol: as §1, §2, §3

[5] = cited from earlier work
ODC = conditions: even at high (>500 μM) concentrations; no reference given; cited from earlier work

SMILES: Cc1ncc(COP(=O)(O)O)c(/C=N/OC[C@H]2CCNC2)c1O [10-S-PLP, ({5-hydroxy-6-methyl-4-[(E)-({[(3S)-pyrrolidin-3-yl]methoxy}imino)methyl]pyridin-3-yl}methoxy)phosphonic acid]
- relative activity of S-enantiomer over R-enantiomer ([1]; 10-S-PLP vs 10-R-PLP, ODC IC50): 8 fold
- LE ([1]; ligand efficiency): 0.47
- inhibition at 50 µM [1]: 93%
- IC50 [1]: 30 nM
- LE ([1]; supplement csv): 0,47
- activity against Kelly neuroblastoma cells (in words) [2]: disappointing neuroblastoma cellular activities
- Cell cytotoxicity (72 hr @ 500 μM) Kelly Neuroblastoma [2]: 11±4%
- cytotoxicity at 72 h, 500 µM [3]: 40%
- cytotoxic activity against neonatal fibroblasts (in words) [4]: generally more toxic
- Cell cytotoxicity (72 hr @ 500 μM) Neonatal Fibroblasts [4]: 40±61%

SMILES: Cc1ncc(COP(=O)(O)O)c(/C=N/OCCCN)c1O [APA-PLP, ({4-[(E)-[(3-Aminopropoxy)imino]methyl]-5-hydroxy-6-methylpyridin-3-yl}methoxy)phosphonic Acid]
- LE ([1]; ligand efficiency): 0.45
- inhibition at 50 µM [1]: 99%
- IC50 [1]: 150 nM
- LE ([1]; supplement csv): 0,45
- activity against Kelly neuroblastoma cells (in words) [2]: disappointing neuroblastoma cellular activities
- Cell cytotoxicity (72 hr @ 500 μM) Kelly Neuroblastoma [2]: 24±9%
- cytotoxicity at 72 h, 500 µM [3]: 12%
- cytotoxic activity against neonatal fibroblasts (in words) [4]: generally more toxic
- Cell cytotoxicity (72 hr @ 500 μM) Neonatal Fibroblasts [4]: 12±19%

SMILES: NCCCCN [putrescine]
- pKa of amino group ([5]; ornithine α-amino group, putrescine nitrogen): ~10.5
- pKa printed in Figure 1 ([5]; ornithine α-amino, putrescine): ~ 10
- inhibition of ODC (in words) (ODC): not an inhibitor

SMILES: NOCC1CNCCO1 (centres unmarked) [Compound 8]
- inhibition at 50 µM [1]: 95%
- IC50 [1]: 780 nM
- Cell cytotoxicity (72 hr @ 500 μM) Kelly Neuroblastoma [2]: 37±11%
- cytotoxicity at 500 µM [2]: 37%
- cytotoxicity at 72 h, 500 µM [3]: 0%
- cytotoxic activity against neonatal fibroblasts (in words) [4]: reduced cytotoxic activity
- Cell cytotoxicity (72 hr @ 500 μM) Neonatal Fibroblasts [4]: 0±11%

SMILES: Cc1ncc(COP(=O)(O)O)c(/C=N/OCC2(F)CCNC2)c1O (centres unmarked) [11-PLP, ({4-[(E)-{[(3-fluoropyrrolidin-3-yl)methoxy]imino}methyl]-5-hydroxy-6-methylpyridin-3-yl}methoxy)phosphonic acid]
- LE ([1]; ligand efficiency): 0.41
- inhibition at 50 µM [1]: 92%
- IC50 [1]: 90 nM
- LE ([1]; supplement csv): 0,41
- activity against Kelly neuroblastoma cells (in words) [2]: disappointing neuroblastoma cellular activities
- Cell cytotoxicity (72 hr @ 500 μM) Kelly Neuroblastoma [2]: 9±13%
- cytotoxicity at 72 h, 500 µM [3]: 57%
- cytotoxic activity against neonatal fibroblasts (in words) [4]: generally more toxic
- Cell cytotoxicity (72 hr @ 500 μM) Neonatal Fibroblasts [4]: 57±20%

SMILES: NOC[C@H]1CCCNC1 [Compound 7-S]
- lower activity relative to racemic 7 [1]: ~4 x
- inhibition at 50 µM [1]: 99%
- IC50 [1]: 700 nM
- Cell cytotoxicity (72 hr @ 500 μM) Kelly Neuroblastoma [2]: 65±6%
- cytotoxicity at 500 µM [2]: 65%
- cytotoxicity at 72 h, 500 µM [3]: 0%
- cytotoxic activity against neonatal fibroblasts (in words) [4]: reduced cytotoxic activity
- Cell cytotoxicity (72 hr @ 500 μM) Neonatal Fibroblasts [4]: 0±15%

SMILES: NOCCC1CCCCN1 (centres unmarked) [Compound 6]
- ODC inhibitory activity (in words) [1]: no ODC activity
- inhibition at 50 µM [1]: 3%

SMILES: NOC[C@@H]1CCCNC1 [Compound 7-R]
- lower activity relative to racemic 7 [1]: ~4 x
- inhibition at 50 µM [1]: 99%
- IC50 [1]: 770 nM
- Cell cytotoxicity (72 hr @ 500 μM) Kelly Neuroblastoma [2]: 49±5%
- cytotoxicity at 500 µM [2]: 49%
- cytotoxicity at 72 h, 500 µM [3]: 0%
- cytotoxic activity against neonatal fibroblasts (in words) [4]: reduced cytotoxic activity
- Cell cytotoxicity (72 hr @ 500 μM) Neonatal Fibroblasts [4]: 0±14%

SMILES: NOCC1CCCNC1 (centres unmarked) [Compound 7, 3-[(Aminooxy)methyl]piperidine Dihydrochloride]
- inhibition at 50 µM [1]: 99%
- IC50 [1]: ~180 nM and 180 nM
- Cell cytotoxicity (72 hr @ 500 μM) Kelly Neuroblastoma [2]: 54±9%
- cytotoxicity at 500 µM [2]: 54%
- cytotoxicity at 72 h, 500 µM [3]: 3%
- cytotoxic activity against neonatal fibroblasts (in words) [4]: reduced cytotoxic activity
- Cell cytotoxicity (72 hr @ 500 μM) Neonatal Fibroblasts [4]: 3±6%

SMILES: NOC[C@@H]1CCNC1 [Compound 10-R]
- inhibition at 50 µM [1]: 99%
- IC50 [1]: 210 nM
- Cell cytotoxicity (72 hr @ 500 μM) Kelly Neuroblastoma [2]: 73±12%
- cytotoxicity at 500 µM [2]: 73%
- cytotoxicity at 72 h, 500 µM [3]: 16%
- cytotoxic activity against neonatal fibroblasts (in words) [4]: reduced cytotoxic activity
- Cell cytotoxicity (72 hr @ 500 μM) Neonatal Fibroblasts [4]: 16±13%

SMILES: Cc1ncc(COP(=O)(O)O)c(/C=N/OC[C@@H]2CCNC2)c1O [10-R-PLP]
- LE ([1]; ligand efficiency): 0.41
- inhibition at 50 µM [1]: 96%
- IC50 [1]: 160 nM
- LE ([1]; supplement csv): 0,41
- activity against Kelly neuroblastoma cells (in words) [2]: disappointing neuroblastoma cellular activities
- Cell cytotoxicity (72 hr @ 500 μM) Kelly Neuroblastoma [2]: 52±6%
- cytotoxicity at 72 h, 500 µM [3]: 36%
- cytotoxic activity against neonatal fibroblasts (in words) [4]: generally more toxic
- Cell cytotoxicity (72 hr @ 500 μM) Neonatal Fibroblasts [4]: 36±17%

SMILES: NOCC1CCNC1 (centres unmarked) [Compound 10]
- inhibition at 50 µM [1]: 99%
- IC50 [1]: 360 nM
- Cell cytotoxicity (72 hr @ 500 μM) Kelly Neuroblastoma [2]: 66±8%
- cytotoxicity at 500 µM [2]: 66%
- cytotoxicity at 72 h, 500 µM [3]: 14%
- cytotoxic activity against neonatal fibroblasts (in words) [4]: reduced cytotoxic activity
- Cell cytotoxicity (72 hr @ 500 μM) Neonatal Fibroblasts [4]: 14±10%

SMILES: NOC[C@H]1CCNC1 [Compound 10-S]
- inhibition at 50 µM [1]: 99%
- IC50 [1]: 100 nM
- Cell cytotoxicity (72 hr @ 500 μM) Kelly Neuroblastoma [2]: 52±18%
- cytotoxicity at 500 µM [2]: 52%
- cytotoxicity at 72 h, 500 µM [3]: 9%
- cytotoxic activity against neonatal fibroblasts (in words) [4]: reduced cytotoxic activity
- Cell cytotoxicity (72 hr @ 500 μM) Neonatal Fibroblasts [4]: 9±8%

SMILES: NOC1CCNCC1 [Compound 9]
- ODC inhibitory activity (in words) [1]: no inhibitory activity
- inhibition at 50 µM [1]: 0%
